Experimental data: PubChem BioAssay AID652265 (Sanford-Burnham Center for Chemical Genomics, 2013)
Activity calls are given as the source filed them.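 The calls were made as follows: active = compounds whose half-maximal inhibitory concentration in the worm GFP to RFP ratio test is 5 micromolar or lower; inactive = the rest.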

Test system: C. elegans VP596 Pgst-4::GFP/RFP ratio, acrylamide, 24 h
Assay: potency of C. elegans SKN-1 blocker analogs – whole organism, GFP/RFP fluorescence ratio, round 2, SAR follow-up (AID 652265)

| IC50 | SMILES |
| --- | --- |
| 432 nM | CCOc1cc(CN2CCCCC2)cc(Cl)c1OCc1ccc(F)cc1 |
| 928 nM | Clc1ccc(COc2c(Cl)cc(CNC3CCCC3)cc2Cl)cc1 |
| 8140 nM (inactive) | C#CCNCc1cc(Cl)c(OCc2ccc(Cl)cc2)c(OCC)c1 |
| 329 nM | COc1cc(CNC2CCCC2)cc(Cl)c1OCc1ccc(Cl)cc1 |
| 227 nM | CCOc1cc(CNC2CC2)cc(Cl)c1OCc1ccc(Br)cc1 |
| 6010 nM (inactive) | CCOc1cc(CN2CCN(C)CC2)cc(Cl)c1OCc1ccc(F)cc1 |
| 21400 nM (inactive) | CCOc1cc(CN2CCCC2)cc(Cl)c1OCc1ccc(F)cc1 |
| 1740 nM | CCOc1cc(CN2CCOCC2)cc(Cl)c1OCc1ccc(Cl)cc1 |
| 12300 nM (inactive) | C=CCNCc1cc(Cl)c(OCc2ccc(Cl)cc2)c(OCC)c1 |
| 1140 nM | Cc1cc(CNC2CCCC2)cc(C)c1OCc1ccc(Cl)cc1 |
| 8680 nM (inactive) | CCCNCc1cc(Cl)c(OCc2ccc(Cl)cc2)c(OCC)c1 |
| 3420 nM | CCOc1cc(CN2CCN(C)CC2)cc(Cl)c1OCc1ccc(Cl)cc1 |
| 3960 nM | CCOc1cc(CN2CCCC2)cc(Cl)c1OCc1ccc(Cl)cc1 |
| 863 nM | CCOc1cc(CNC2CCCC2)cc(Cl)c1OCc1ccc(Cl)cc1F |
| 8890 nM (inactive) | CCOc1cc(CN2CCOCC2)cc(Cl)c1OCc1ccc(F)cc1 |
| 400 nM | CCOc1cc(CNC2CCCC2)cc(Cl)c1OCc1ccc(C#N)cc1 |
| 1560 nM | CCOc1cc(CNC2CC2)cc(Cl)c1OCc1ccc(C#N)cc1 |
| 771 nM | COc1cc(CNC2CCCC2)cc(Br)c1OCc1ccc(Cl)cc1 |
| 516 nM | CCOc1cc(CNC2CC2)cc(Cl)c1OCc1ccc(Cl)cc1F |
| 6730 nM (inactive) | CCOc1cc(CNCC2CC2)cc(Cl)c1OCc1ccc(Cl)cc1 |
| 1220 nM | COc1cc(CNC2CCCC2)cc(F)c1OCc1ccc(Cl)cc1 |
| 423 nM | CCOc1cc(CN(C)C2CCCC2)cc(Cl)c1OCc1ccc(Cl)cc1 |
| 495 nM | CCOc1cc(CN2CCCCC2)cc(Cl)c1OCc1ccc(Cl)cc1 |
| 512 nM | CCOc1cc(CNC2CC2)cc(Cl)c1OCc1ccc(Cl)cc1 |
| 425 nM | CCOc1cc(CNC2CCCC2)cc(Cl)c1OCc1ccc(Br)cc1 |
| > 64000 nM (inactive) | CCOc1cc(CN(C(C)=O)C2CCCC2)cc(Cl)c1OCc1ccc(Cl)cc1 |
| > 64000 nM (inactive) | CCOc1cc(CNC)cc(Cl)c1OCc1ccc(Cl)cc1 |
